Results: BindingDB's records for doi:10.1021/acsmedchemlett.7b00188 (Wuxi Apptec (Shanghai), 2017)

Assay: Inhibition of Enterovirus 71 Shenzhen/120F1/09 capsid infected in human RD cells assessed as reduction in virus-induced cell death after 72 hrs by CCK-8 assay

| SMILES | EC50 |
| --- | --- |
| Nc1cc(N2CCN(CCCCCOc3ccc(-c4ccc(Cl)cc4)cc3)S2(=O)=O)ccn1 | 12 nM |
| O=C1N(CCCCC2CCc3cc(-c4ccc(Cl)cc4)ccc3O2)CCN1c1ccncc1 (configuration not stated) | 48 nM |
| O=S1(=O)N(CCCCCOc2ccc(-c3ccc(Cl)cc3)cc2)CCN1c1ccncc1 | 110 nM |
| S=C1N(CCCCCOc2ccc(-c3ccc(Cl)cc3)cc2)CCN1c1ccncc1 | 2800 nM |
| O=C1CN(CCCCCOc2ccc(-c3ccc(Cl)cc3)cc2)CCN1c1ccncc1 | 1200 nM |
| CCO/N=C1\CCc2cc(OCCCCCN3CCN(c4ccnc(N)c4)S3(=O)=O)ccc21 | 4 nM |
| CCO/N=C(\C)c1ccc(OCCCCCN2CCN(c3ccnc(N)c3)S2(=O)=O)cc1 | 600 nM |
| CCO/N=C/c1ccc(OCCCCCN2CCN(c3ccnc(N)c3)S2(=O)=O)cc1 | 0.9 nM |
| O=C1N(CCCCc2nc3cc(-c4ccc(Cl)cc4)ccc3o2)CCN1c1ccncc1 | 1100 nM |
| O=C1CC(CCCCN2CCN(c3ccncc3)C2=O)Oc2ccc(-c3ccc(Cl)cc3)cc21 (configuration not stated) | 540 nM |
| CCn1ccc2cc(OCCCCCN3CCN(c4ccnc(N)c4)S3(=O)=O)ccc21 | > 1000 nM |
| CCc1noc2cc(OCCCCCN3CCN(c4ccnc(N)c4)S3(=O)=O)ccc12 | 352 nM |
| CCO/N=C/c1ccc(OCCC(C)CCN2CCN(c3ccnc(N)c3)C2=O)cc1 (configuration not stated) | 0.03 nM |
| O=C1CN(c2ccncc2)CCN1CCCCCOc1ccc(-c2ccc(Cl)cc2)cc1 | 180 nM |
| CCO/N=C(\CC)c1ccc(OCCCCCN2CCN(c3ccnc(N)c3)S2(=O)=O)cc1 | 554 nM |
| O=C1N(CCCCc2cc3cc(-c4ccc(Cl)cc4)ccc3o2)CCN1c1ccncc1 | 1100 nM |
| CCO/N=C1\CCCc2cc(OCCCCCN3CCN(c4ccnc(N)c4)S3(=O)=O)ccc21 | 309 nM |
| CCn1ncc2cc(OCCCCCN3CCN(c4ccnc(N)c4)S3(=O)=O)ccc21 | > 1000 nM |
| O=C1C(=O)N(c2ccncc2)CCN1CCCCCOc1ccc(-c2ccc(Cl)cc2)cc1 | > 1000 nM |
| O=C1N(CCCCCOc2ccc(-c3ccc(Cl)cc3)cc2)CCN1c1ccncc1 [1-[5-(4''-Chloro-biphenyl-4-yloxy)-pentyl]-3-pyridin-4-yl-imidazolidin-2-one] | 91 nM |
| Cc1cc(CCCOc2c(C)cc(-c3noc(C(F)(F)F)n3)cc2C)on1 [3-(3,5-dimethyl-4-(3-(3-methylisoxazol-5-yl)propoxy)phenyl)-5-(trifluoromethyl)-1,2,4-oxadiazole] | > 100000 nM |
| NC(=O)c1ncn([C@@H]2O[C@H](CO)[C@@H](O)[C@H]2O)n1 [Tribavirin] | > 100000 nM |
